Reference: DBAASP
Values after ≈ are worked out from the molar mass of the structure shown. Values joined by “and” are separate entries in the source; they are usually repeats but may differ in a detail not shown here. Identical values can stand only once. Blank lines part the entries; values can stand above or below the compound they belong to.

Tests used:
Assay in all cases: ≥ marks a high value that may be exact or a test limit, other limits are often not marked, values filed in µg/mL are converted to µM
[1] = system: Fusarium verticillioides KCTC 6149
[2] = system: Fusarium oxysporum KCTC 16909
[3] = system: Candida krusei CCARM 14017
[4] = system: Candida albicans KCTC 7270
[5] = system: Candida parapsilosis CCARM 14016
[6] = system: Candida tropicalis KCTC 7221
[7] = system: Salmonella enterica serovar typhimurium MS7953s
[8] = system: Escherichia coli UB1005
[9] = system: Escherichia coli DC2
[10] = system: Pseudomonas aeruginosa K799
[11] = system: Aeromonas salmonicida 99-1
[12] = system: Salmonella enterica subsp. enterica serovar Typhimurium ATCC 14028s
[13] = system: Escherichia coli CGSC 4908
[14] = system: Candida albicans C627
[15] = system: Staphylococcus epidermidis C621
[16] = system: Staphylococcus aureus C623
[17] = system: Pseudomonas aeruginosa Z61
[18] = system: Aeromonas salmonicida 97-4
[19] = system: Escherichia coli NEB5alpha
[20] = system: Bacillus subtilis ATCC 6051
[21] = system: Klebsiella pneumoniae LMG 20218
[22] = system: Escherichia coli LMG 15862
[23] = system: Acinetobacter baumannii LMG 01041
[24] = system: Pseudomonas aeruginosa LMG 6395
[25] = system: Klebsiella aerogenes LMG 02094
[26] = system: Pseudomonas aeruginosa H374
[27] = system: Burkholderia cepacia ATCC 25416
[28] = system: Pseudomonas aeruginosa ATCC 27853
[29] = system: Pseudomonas aeruginosa H744
[30] = system: Pseudomonas aeruginosa H547
[31] = system: Staphylococcus aureus ATCC 9144
[32] = system: Aureobasidium pullulans
[33] = system: Escherichia coli ATCC 25922
[34] = system: Micrococcus luteus
[35] = system: Bacillus megaterium
[36] = system: Candida albicans ATCC 10231
[37] = system: Corynebacterium glutamicum ATCC 13032
[38] = system: Bacillus subtilis ATCC 23857

MIC [21]: ≥ 64 µM | MIC [22]: ≥ 32 µM | MIC [23]: ≥ 128 µM | MIC [24]: 16 µM (≈ 21.4 µg/mL) | MIC [25]: ≥ 256 µM
SMILES: CC[C@H](C)[C@H](NC(=O)[C@H](CCCN=C(N)N)NC(=O)[C@H](CCC(N)=O)NC(=O)[C@@H](NC(=O)[C@@H](NC(=O)[C@@H](N)CCCN=C(N)N)[C@@H](C)CC)C(C)C)C(=O)N[C@@H](CCCCN)C(=O)N[C@@H](CCCCN)C(=O)N[C@@H](Cc1c[nH]c2ccccc12)C(=O)N[C@@H](CC(C)C)C(N)=O [RIVQRIKKWL]

MIC [31]: ≥ 196 µM | MIC [32]: ≥ 49 µM | MIC [33]: 49 µM (≈ 62.5 µg/mL) | MIC [34]: ≥ 49 µM | MIC [28]: > 196 µM | MIC [35]: 0.785 µM (≈ 0.999 µg/mL) | MIC [36]: 49 µM (≈ 62.5 µg/mL) | MIC [37]: 3.06 µM (≈ 3.9 µg/mL) | MIC [38]: 3.06 µM (≈ 3.9 µg/mL)
SMILES: C[C@H](NC(=O)[C@H](CCCCN)NC(=O)[C@H](Cc1c[nH]c2ccccc12)NC(=O)[C@H](Cc1c[nH]c2ccccc12)NC(=O)CNC(=O)[C@H](Cc1c[nH]c2ccccc12)NC(=O)[C@H](CCCCN)NC(=O)[C@H](CCCCN)NC(=O)CN)C(=O)N[C@@H](CCCCN)C(N)=O [GKKWGWWKAK]

Second part, the compound before the results:

SMILES: CC[C@H](C)[C@H](NC(=O)[C@H](C)NC(=O)[C@H](CCC(=O)O)NC(=O)[C@H](Cc1cnc[nH]1)NC(=O)[C@H](CCCCN)NC(=O)CNC(=O)[C@H](CCC(N)=O)NC(=O)[C@H](CCCCN)NC(=O)[C@@H](NC(=O)[C@H](CCCCN)NC(=O)[C@H](CCCCN)NC(=O)[C@H](CC(C)C)NC(=O)[C@H](C)NC(=O)[C@H](CC(N)=O)NC(=O)[C@H](CC(C)C)NC(=O)CN)C(C)C)C(=O)N[C@@H](CCCCN)C(=O)N[C@@H](CC(C)C)C(=O)N[C@H](C(=O)N[C@@H](CC(N)=O)C(=O)N[C@@H](CC(N)=O)C(=O)N[C@@H](Cc1cnc[nH]1)C(=O)N[C@H](C(=O)N[C@@H](CCC(N)=O)C(N)=O)C(C)C)[C@@H](C)CC [GLNALKKVKQGKHEAIKLINNHVQ]
MIC [1]: ≥ 64 µM | MIC [2]: 6 µM and 16 µM | MIC [3]: ≥ 48 µM and 16 µM | MIC [4]: ≥ 64 µM | MIC [5]: ≥ 64 µM | MIC [6]: 8 µM and 16 µM

SMILES: CC[C@H](C)[C@H](NC(=O)[C@H](C)NC(=O)CNC(=O)[C@H](CCCCN)NC(=O)[C@@H](NC(=O)[C@H](CC(C)C)NC(=O)[C@H](C)NC(=O)CNC(=O)[C@H](CC(C)C)NC(=O)[C@@H](N)Cc1ccccc1)[C@@H](C)CC)C(=O)N[C@@H](Cc1cnc[nH]1)C(=O)NCC(=O)NCC(=O)N[C@@H](CCCNC(=N)N)C(=O)N[C@@H](Cc1ccccc1)C(=O)N[C@H](C(=O)N[C@@H](Cc1cnc[nH]1)C(=O)NCC(=O)N[C@@H](CCSC)C(=O)N[C@H](C(=O)N[C@@H](CCC(N)=O)C(=O)N[C@@H](CC(N)=O)C(=O)N[C@@H](Cc1cnc[nH]1)C(=O)N[C@@H](Cc1cnc[nH]1)C(C)=O)[C@@H](C)CC)[C@@H](C)CC [FLGALIKGAIHGGRFIHGMIQNHH]
MIC [7]: 24.4 µM (≈ 64 µg/mL) | MIC [8]: 24.4 µM (≈ 64 µg/mL) | MIC [9]: 24.4 µM (≈ 64 µg/mL) | MIC [10]: 24.4 µM (≈ 64 µg/mL) | MIC [11]: 24.4 µM (≈ 64 µg/mL) | MIC [12]: 24.4 µM (≈ 64 µg/mL) | MIC [13]: 24.4 µM (≈ 64 µg/mL) | MIC [14]: 24.4 µM (≈ 64 µg/mL) | MIC [15]: 12.2 µM (≈ 32 µg/mL) | MIC [16]: 12.2 µM (≈ 32 µg/mL) | MIC [17]: 12.2 µM (≈ 32 µg/mL) | MIC [18]: 24.4 µM (≈ 64 µg/mL)

SMILES: CC[C@H](C)[C@H](NC(=O)[C@H](C)NC(=O)CNC(=O)[C@H](CCCCN)NC(=O)[C@H](CCC(=O)O)NC(=O)[C@H](CCC(=O)O)NC(=O)[C@H](CC(=O)O)NC(=O)[C@H](CCC(=O)O)NC(=O)[C@H](CC(=O)O)NC(=O)[C@H](CCCN=C(N)N)NC(=O)CNC(=O)[C@H](CCC(N)=O)NC(=O)[C@H](CC(C)C)NC(=O)[C@H](CCCCN)NC(=O)[C@H](CC(=O)O)NC(=O)[C@@H](NC(=O)[C@@H](NC(=O)[C@H](Cc1cnc[nH]1)NC(=O)[C@H](CCCN=C(N)N)NC(=O)[C@H](CC(N)=O)NC(=O)[C@@H](N)C(C)C)[C@@H](C)CC)C(C)C)C(=O)N[C@H](C(=O)N[C@@H](CCCCN)C(=O)N[C@H](C(=O)N[C@@H](CCCCN)C(=O)NCC(=O)NCC(=O)N[C@@H](CC(C)C)C(=O)O)C(C)C)C(C)C [VNRHIVDKLQGRDEDEEKGAIVKVKGGL]
MIC [19]: ≥ 500 µM | MIC [20]: ≥ 500 µM

SMILES: CC[C@H](C)[C@H](NC(=O)[C@H](CC(C)C)NC(=O)[C@H](C)NC(=O)[C@@H]1CCCN1C(=O)[C@H](CC(C)C)NC(=O)CNC(=O)[C@@H](NC(=O)[C@@H](NC(=O)[C@H](CC(C)C)NC(=O)[C@@H](NC(=O)[C@H](CCCCN)NC(=O)[C@H](CCCCN)NC(=O)[C@H](C)NC(=O)[C@H](C)NC(=O)[C@H](CO)NC(=O)[C@@H](NC(=O)[C@H](CC(C)C)NC(=O)[C@H](CCCCN)NC(=O)[C@H](CCCCN)NC(=O)[C@@H](NC(=O)[C@H](Cc1ccccc1)NC(=O)[C@H](CO)NC(=O)[C@H](CCCCN)NC(=O)[C@H](Cc1c[nH]c2ccccc12)NC(=O)[C@@H](N)CCCCN)[C@@H](C)CC)[C@@H](C)O)C(C)C)[C@@H](C)O)[C@@H](C)O)C(=O)N[C@@H](CO)C(=O)O [KWKSFIKKLTSAAKKVLTTGLPALIS]
MIC [26]: 1.41 µM (≈ 4 µg/mL) | MIC [8]: 0.707 µM (≈ 2 µg/mL) | MIC [10]: 1.77 µM (≈ 5 µg/mL) | MIC [27]: 22.6 µM (≈ 64 µg/mL) | MIC [12]: 1.41 µM (≈ 4 µg/mL) | MIC [28]: 4 µM (≈ 11.3 µg/mL) | MIC [29]: 1.41 µM (≈ 4 µg/mL) | MIC [30]: 2.83 µM (≈ 8 µg/mL) | MIC [17]: 1.06 µM (≈ 3 µg/mL)
